Test system: Plasmodium falciparum
Test: GSK_TCMDC: Inhibition of Plasmodium falciparum 3D7 in whole erythrocytes, using parasite LDH activity as an index of growth.
Type: functional, organism-based
Conditions: Plasmodium falciparum, 3D7

Structure (SMILES): COc1ccc2nccc(NC(=O)N3CCC(NCc4cc5c(F)ccc(F)c5[nH]4)CC3)c2n1
- XC50: 221 nM

Structure (SMILES): Cc1ccc(NC(=O)c2ccc(CN3CCCN(Cc4cccc(C#N)c4)CC3)cc2)cc1F
- XC50: 592 nM

Structure (SMILES): CC(C)N1CCC(NC(=O)N2CCCN(c3ncnc4cc(-c5ccccc5)sc34)CC2)CC1
- XC50: 861 nM

Structure (SMILES): CCn1c(C(C)C)cc2c3c(N)nc(N)nc3ccc21
- XC50: 12.4 nM

Structure (SMILES): O=C(O[C@H]1CN[C@H](C#Cc2cc3c(Nc4ccc(OCc5cccc(F)c5)c(Cl)c4)ncnc3s2)C1)N1CCCC1
- XC50: 707 nM

Structure (SMILES): CCOc1ccc2c(=NN=Cc3cccc(F)c3)cc(C)[nH]c2c1
- XC50: 714 nM

Structure (SMILES): CCCS(=O)(=O)c1nc(S(=O)(=O)c2ccc(Cl)cc2)c(N2CCCCC2)s1
- XC50: 1290 nM

Structure (SMILES): CNCCNCc1ccc(-c2cccc(-c3nc4cc(F)ccc4[nH]3)c2)cc1
- XC50: 1130 nM

Structure (SMILES): COc1cc(Nc2nccc(N3CCC(NC(=O)Nc4cc(C)ccc4C)C3)n2)cc(OC)c1OC (stereo not drawn)
- XC50: 1120 nM

Structure (SMILES): Cc1cccc(C=NN=c2cc(C)[nH]c3ccc(F)cc23)n1
- XC50: 1000 nM

Structure (SMILES): CS(=O)(=O)c1cccc(-c2cnc3[nH]cc(-c4ccc(CCC(=O)O)cc4)c3c2)c1
- XC50: 634 nM

Structure (SMILES): Cc1ccccc1C1CCN(C2CCC(NC(=O)/C=C/c3cc(F)cc(F)c3)CC2)CC1 (stereo not drawn)
- XC50: 833 nM

Structure (SMILES): CC(=O)Nc1ccc(C(=O)Nc2cccc(-c3cccc(-c4nc5ccccc5[nH]4)c3)c2)cn1
- XC50: 204 nM

Structure (SMILES): Cc1nc(-c2nc(NCCc3c(C)noc3C)ncc2-c2ccsc2)sc1C
- XC50: 256 nM

Structure (SMILES): Nc1nc(N)c2c(ccc3c2ccn3Cc2cccc3ccccc23)n1
- XC50: 3.2 nM

Structure (SMILES): CCc1ccc(NC(=O)c2cccc(CN3CCCN(Cc4cccc(O)c4)CC3)c2)cc1
- XC50: 894 nM

Structure (SMILES): CC1CN(c2cnn(Cc3cccc(NC(=O)Nc4ccc(-c5ccccc5)cc4)c3)c(=O)c2Cl)CC(C)N1 (stereo not drawn)
- XC50: 340 nM

Structure (SMILES): Cc1noc(C)c1-c1cccc(CNCc2cccc(-c3ccc(-c4nc5cccc(C)c5[nH]4)cc3)c2)c1
- XC50: 191 nM

Structure (SMILES): O=C(/C=C/c1ccc(Cl)cc1)NCCCCCN1CCCC(C(=O)Nc2ccc(Cl)c(Cl)c2)C1 (stereo not drawn)
- XC50: 833 nM

Structure (SMILES): COc1ccc2nccc(N3CCC(NCCNCc4ccc5c(n4)NC(=O)CS5)C3)c2n1 (stereo not drawn)
- XC50: 694 nM

Structure (SMILES): Cc1ccc(C)c(Cn2ccc3nc(N)nc(N)c32)c1
- XC50: 301 nM

Structure (SMILES): COc1ccc(NC(=O)c2ccc(-c3nc(-c4cccc(C(F)(F)F)c4)cs3)cc2)cc1N1CCN(C)CC1
- XC50: 818 nM

Structure (SMILES): Fc1ccc2[nH]c(-c3cccc(-c4ccc(CN5CCN(CCN6CCOCC6)CC5)cc4)c3)nc2c1
- XC50: 307 nM

Structure (SMILES): Cc1cc(NCCC(=O)Nc2ccccc2)nc(NCc2ccccc2C)n1
- XC50: 657 nM

Structure (SMILES): O=[N+]([O-])c1cccc(/C=N/Nc2ccnc3cc(F)ccc23)c1
- XC50: 910 nM

Structure (SMILES): COc1cc2nc(NCCc3ccccc3)nc(NCc3ccc(C#N)cc3)c2cc1OC
- XC50: 145 nM

Structure (SMILES): CCCC(=O)Nc1ccc(OCCCN(Cc2ccccc2OC(F)(F)F)c2ccc(C#N)c(C(F)(F)F)c2)cc1
- XC50: 600 nM

Structure (SMILES): CCCNC(=O)C1CCN(C(c2ccccc2)c2ccc(Cl)c(Cl)c2)CC1 (stereo not drawn)
- XC50: 708 nM

Structure (SMILES): CCn1c(Sc2ccc([N+](=O)[O-])c(C#N)c2)nnc1-c1cccc(Cl)c1
- XC50: 873 nM

Structure (SMILES): Cn1c2c(c3ccccc31)CN(CCC1(c3ccc(Cl)c(Cl)c3)CN(C(=O)Cc3ccccc3)CCO1)CC2 (stereo not drawn)
- XC50: 358 nM

Structure (SMILES): CC(C)(C)c1ccc2[nH]c(-c3ccc(C(=O)NCCCc4ccccc4)cc3)nc2c1
- XC50: 801 nM

Structure (SMILES): Cc1nc(N)nc(N)c1-c1ccc2ccccc2c1
- XC50: 868 nM

Structure (SMILES): CCO[C@H]1CN[C@H](C#Cc2cc3c(Nc4ccc(OCc5cccc(F)c5)c(Cl)c4)ncnc3s2)C1
- XC50: 939 nM

Structure (SMILES): CN1CCCC(CN2CCN(Cc3cccc(-c4ccc(-c5nc6cc(F)ccc6[nH]5)cc4)c3)CC2)C1 (stereo not drawn)
- XC50: 139 nM

Structure (SMILES): CC(C)(C)NCC(O)COc1ccc(Cl)cc1C1=NNC(=O)CC1 (stereo not drawn)
- XC50: 150 nM

Structure (SMILES): O=C(Nc1cccc(OC2CCN(Cc3ccsc3)CC2)c1)c1ccc(C(F)(F)F)cc1
- XC50: 765 nM

Structure (SMILES): Nc1cccc(CNCc2ccc(-c3cccc(-c4nc5cc(F)ccc5[nH]4)c3)cc2)c1
- XC50: 213 nM

Structure (SMILES): O=C(/C=C/c1ccc(Cl)c(Cl)c1)NCCCCCN1CCCC(CNC(=O)Nc2ccc(Oc3ccccc3)cc2)C1 (stereo not drawn)
- XC50: 783 nM

Structure (SMILES): NC(=O)C1CCN(Cc2cccc(-c3cccc(-c4nc5cc(C(F)(F)F)ccc5[nH]4)c3)c2)CC1
- XC50: 641 nM

Structure (SMILES): CCN(CCNC(=O)C1CCN(c2cc(-c3cccc(C)c3)ncn2)CC1)Cc1ccccc1
- XC50: 171 nM

Structure (SMILES): Cc1cccc2nc(O)c([N+](=O)[O-])c(O)c12
- XC50: 911 nM

Structure (SMILES): COc1cccc(CN2Cc3ccccc3OC3(CCN(Cc4c[nH]c5cnccc45)CC3)C2)c1
- XC50: 1300 nM

Structure (SMILES): Cc1ccc2c(c1)c(-c1ccccc1)c(-c1ccccc1)n2CC(O)CN1CCN(CC=Cc2ccccc2)CC1 (stereo not drawn)
- XC50: 782 nM

Structure (SMILES): Cc1ccccc1C(=O)Nc1cccc(-c2nc3ncccn3c2C)c1
- XC50: 765 nM

Structure (SMILES): CC(C)C[C@H]1C(=O)N[C@H](C2Cc3ccccc3C2)C(=O)N1[C@@H](C(=O)Nc1ccccc1OCc1ccccc1)c1ccc(F)cc1F
- XC50: 1020 nM

Structure (SMILES): COc1cc2nc(N3CCC(c4ccccc4)CC3)nc(NCc3ccc(=O)[nH]c3)c2cc1OC
- XC50: 755 nM

Structure (SMILES): CN(C)c1cccc(NC(=O)N[C@H]2N=C(c3ccccc3)c3ccccc3N(CC(=O)N3CCCC3)C2=O)c1
- XC50: 254 nM

Structure (SMILES): O=C(Nc1cncc(NC(=O)c2ccc(Cl)c(Cl)c2)c1)c1ccc(Cl)c(Cl)c1
- XC50: 730 nM

Structure (SMILES): Cc1ccc(NC(=O)NC2CCN(CCCCCNC(=O)C3CC3c3ccc(Cl)c(Cl)c3)CC2)cc1 (stereo not drawn)
- XC50: 540 nM

Structure (SMILES): COc1cccc(OC)c1C(=O)N1CCC2(CC1)C(=O)N(CC(=O)NC1CCCCC1)CN2c1ccccc1
- XC50: 953 nM

Structure (SMILES): CC[C@H]1CN2CC[C@@H]1C[C@H]2[C@H](O)c1cc(-c2ccccc2)nc2ccc(O)cc12
- XC50: 189 nM

Structure (SMILES): CC(=O)Nc1ccc(C(=O)N2CCN(c3ccnc4cc(Cl)ccc34)CC2)cc1
- XC50: 909 nM

Structure (SMILES): COc1c(C)[nH]c(C)c(-c2ccc(Oc3cccc(C(F)(F)F)c3)cc2)c1=O
- XC50: 314 nM

Structure (SMILES): Cc1ccc2c(-c3ccc([N+](=O)[O-])o3)cc(C)nc2c1
- XC50: 43.7 nM

Structure (SMILES): FC(F)c1nc2ccccc2n1-c1nc(N2CCOCC2)nc(N2CCOCC2)n1 [ZSTK-474]
- XC50: 761 nM

Structure (SMILES): Cc1cc(NC(=O)NCCN2CCC(NS(=O)(=O)c3ccccc3F)CC2)c2ccccc2n1
- XC50: 949 nM

Structure (SMILES): CC1(C)NC(=N)NC(=N)N1OCC=Cc1ccccc1
- XC50: 4.24 nM

Structure (SMILES): COc1ccc(NC(=O)Nc2ccc(-c3ccncc3)c(Cl)c2)cc1N1CCN(C)CC1
- XC50: 755 nM

Structure (SMILES): CCCc1cn2c3c(cc(C(=O)N[C@@H](Cc4ccccc4)[C@H](O)CNC4CCCCC4)cc13)N(CC)S(=O)(=O)CC2
- XC50: 80.6 nM

Structure (SMILES): CCCN1CCN(c2cc(S(=O)(=O)Nc3ccc(C(=O)NCc4cccc(C(F)(F)F)c4)cc3)ccc2OC)CC1
- XC50: 1010 nM

Structure (SMILES): CN1CC=C(c2csc3ccc(NC(=O)Nc4ccc(-c5ccncc5)c5ccccc45)cc23)CC1
- XC50: 804 nM

Structure (SMILES): CCc1cc(OC)ccc1C1CCN(CCCCNC(=O)c2ccc(NC(=O)c3ccc(Cl)cc3)cc2)CC1
- XC50: 1070 nM

Structure (SMILES): CC(Cc1ccc(C(=O)N2CCN(C(=O)c3ccc(CC(C)NCCc4cccc(Cl)c4)cc3)CC2)cc1)NCCc1cccc(Cl)c1 (stereo not drawn)
- XC50: 677 nM

Structure (SMILES): O=C(Nc1ccc(Cl)cc1)c1cccc(S(=O)(=O)NC2CCN(CC3CCCCC3)CC2)c1
- XC50: 722 nM

Structure (SMILES): CC(C)CCN1CCCN(Cc2cccc(C(=O)Nc3ccc(C(C)(C)C)cc3)c2)CC1
- XC50: 1100 nM

Structure (SMILES): CS(=O)(=O)Nc1cccc(-c2cnc3[nH]cc(-c4ccc(CN)cc4)c3c2)c1
- XC50: 986 nM

Structure (SMILES): COc1ccc(C(C(=O)NC2CCN(C[C@H](O)c3ccnc4ccc(OC)cc34)CC2)N2CCN(Cc3ccccc3)CC2)cc1 (stereo partly drawn)
- XC50: 149 nM

Structure (SMILES): CCCNC(=O)c1cncc(-c2cccc(CNC3Cc4ccccc4C3)c2)c1
- XC50: 803 nM

Source: ChEMBL document CHEMBL1157539, “Thousands of chemical starting points for antimalarial lead identification” (Nature, 2010)
